{
  "source": "ChEMBL document CHEMBL1201862",
  "about": "“PubChem BioAssay data set” (2004)",
  "key": {"HeLa": {"test_system": "HeLa", "experiment": "viability loss in HeLa cells – cell-based, ATP luminescence, cherry-pick samples, cytotoxicity control, dose response (AID 687004)", "format": "functional", "details": "Homo sapiens"}, "A549": {"test_system": "A549", "experiment": "viability loss in A549 cells – cell-based, plate reader, cherry-pick samples, cytotoxicity control, dose response (AID 687028)", "format": "functional", "details": "Homo sapiens"}, "[1]": {"experiment": "anti-trypanosomal activity in BESM host cells – imaging, CA-I/72 strain, bovine embryo skeletal muscle, dry powder, dose response (AID 651885)", "format": "functional, cell-based"}, "[2]": {"molecular_target": "Kappa-type opioid receptor (Homo sapiens, UniProt P41145)", "sequence (P41145 whole entry)": "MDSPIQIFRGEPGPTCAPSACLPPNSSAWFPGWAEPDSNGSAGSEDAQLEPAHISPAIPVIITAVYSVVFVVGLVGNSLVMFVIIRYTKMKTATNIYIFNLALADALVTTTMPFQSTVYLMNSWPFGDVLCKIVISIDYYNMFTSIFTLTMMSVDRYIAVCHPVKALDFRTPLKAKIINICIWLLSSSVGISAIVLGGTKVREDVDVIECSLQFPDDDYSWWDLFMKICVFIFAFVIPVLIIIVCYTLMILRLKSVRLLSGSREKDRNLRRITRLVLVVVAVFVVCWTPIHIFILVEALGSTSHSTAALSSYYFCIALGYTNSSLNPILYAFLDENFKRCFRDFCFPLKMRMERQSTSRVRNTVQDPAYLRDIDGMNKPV", "experiment": "kappa opioid receptor antagonism potency – cell-based, fluorescence, dose response, late-stage follow-up (AID 652032)", "format": "functional"}},
  "note": "Active and inactive are the calls of the source.",
  "data": [
    {"compound": "CC(C)NC(=O)Nc1ccc2c(c1)CC(=O)N([C@@H](C)CO)C[C@@H](C)[C@@H](CN(C)Cc1ccc(Oc3ccccc3)cc1)O2", "values": [
      {"measurement": "AC50", "setting": "HeLa", "result": "38.8 µM (active)"}
    ]},
    {"compound": "Cc1ccc(S(=O)(=O)N(C)C[C@@H]2OCCCC[C@H](C)Oc3ccc(NS(=O)(=O)c4c(C)noc4C)cc3C(=O)N([C@H](C)CO)C[C@@H]2C)cc1", "values": [
      {"measurement": "AC50", "setting": "A549", "result": "25.1 µM (active)"}
    ]},
    {"compound": "CC(C)N(C)C(=O)c1cccc(NC(=O)c2ccncc2)c1OCCCN(C)Cc1ccc(Cl)cc1", "values": [
      {"measurement": "IC50", "setting": "[1]", "result": "0.385 µM (active)"}
    ]},
    {"compound": "COC(=O)c1cc(Br)cnc1N1CCC(NC2CCCCC2)C(C)C1", "note": "(centres undefined)", "values": [
      {"measurement": "IC50", "setting": "[2]", "result": "0.075 µM (active)"}
    ]}
  ]
}
